Results as given in ChEMBL document CHEMBL1201862, “PubChem BioAssay data set” (2004).
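Compound exposure: 48 hours, 5 concentrations, 96-well plates. GI50 = concentration required for 50% inhibition of growth.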 Calls of active or inactive are those of the source. Rule as the data show it: active = GI50 up to about 1.1 µM and inactive = higher. *1 amine or outer side, *2 acyl side, *3 side chain or, on linkers, in order; H or OH if unused. Where a SMILES comes first, the peptide text is derived from it. [ ]: non-standard residue; d: D form. The star is where a group is joined. ξ: configuration not given here. X26 = O=C([C@H]1CCC[C@H]1N[*:1])[*:2]; ξW = NC(Cc1c[nH]c2ccccc12)C(=O)O; ξF = NC(Cc1ccccc1)C(=O)O; Boc = CC(C)(C)OC(=O)*; ξK = NCCCCC(N)C(=O)O; ξT = CC(O)C(N)C(=O)O; tBu = CC(C)(C)*

Legend:
Assay in all cases: growth of human tumour cells (NCI), 48 h
[1] = system: BT-549
[2] = system: K562
[3] = system: CCRF-CEM
[4] = system: KM12
[5] = system: DU-145
[6] = system: NCI-H226
[7] = system: UO-31
[8] = system: SNB-19
[9] = system: COLO 205
[10] = system: HCT-15
[11] = system: UACC-257
[12] = system: HL-60
[13] = system: OVCAR-8
[14] = system: CAKI-1
[15] = system: U-251
[16] = system: EKVX
[17] = system: T47D
[18] = system: NCI-H522
[19] = system: ACHN
[20] = system: HCC 2998

SMILES	GI50 [1]	GI50 [2]	GI50 [3]	GI50 [4]	GI50 [5]	GI50 [6]	GI50 [7]	GI50 [8]	GI50 [9]	GI50 [10] [µM]	GI50 [11]	GI50 [12]	GI50 [13]	GI50 [14]	GI50 [15]	GI50 [16]	GI50 [17]	GI50 [18]	GI50 [19]	GI50 [20]
COC(=O)c1c(O)ccc2c1c1c(n2Cc2cc(OC)cc(OC)c2)C(=O)c2ccccc2C1	55.5 µM (inactive)	66.8 µM (inactive)	18.2 µM (inactive)	43.3 µM (inactive)	53.3 µM (inactive)	93.3 µM (inactive)	63.4 µM (inactive)	> 100 µM (inactive)	13.2 µM (inactive)	32.1	67 µM (inactive)	> 100 µM (inactive)	43.3 µM (inactive)	21.1 µM (inactive)	47.8 µM (inactive)					
CCC1=C(c2ccc(OC)cc2)CC[C@]2(CCNC2=O)[C@@H]1C		21.5 µM (inactive)	24.8 µM (inactive)	32 µM (inactive)	33.3 µM (inactive)	37.9 µM (inactive)	21.4 µM (inactive)	34.6 µM (inactive)	14.4 µM (inactive)	28.7	23.7 µM (inactive)	51.3 µM (inactive)	42.4 µM (inactive)	48.3 µM (inactive)	29.9 µM (inactive)	28.1 µM (inactive)	32.4 µM (inactive)	18.3 µM (inactive)	25.6 µM (inactive)	28.4 µM (inactive)
COC(=O)C1=C(O)C(C(=O)OC)[C@@]2(O)[C@@H](C(=O)OC)C(c3ccc(OC(=O)/C(=C/c4ccccc4)c4ccccc4)cc3)C[C@@H]1[C@@H]2C(=O)OC (some centres not stated)	> 100 µM (inactive)	9.25 µM (inactive)	4.9 µM (inactive)	27.9 µM (inactive)	20.5 µM (inactive)	9.86 µM (inactive)	10.9 µM (inactive)	30 µM (inactive)	40 µM (inactive)	7.18	18.9 µM (inactive)	17.4 µM (inactive)	14.1 µM (inactive)	11.9 µM (inactive)	11.2 µM (inactive)	64.6 µM (inactive)	> 100 µM (inactive)	13.3 µM (inactive)	19.7 µM (inactive)	
CC(=O)Oc1c(OC(C)C)cc(=O)n2ccsc12	> 100 µM (inactive)	42.8 µM (inactive)	16.1 µM (inactive)	> 100 µM (inactive)	> 100 µM (inactive)	> 100 µM (inactive)	> 100 µM (inactive)	> 100 µM (inactive)	30.1 µM (inactive)	> 100	> 100 µM (inactive)	18.5 µM (inactive)	> 100 µM (inactive)	> 100 µM (inactive)	> 100 µM (inactive)	> 100 µM (inactive)		42.2 µM (inactive)	> 100 µM (inactive)	> 100 µM (inactive)
CC(NC(=O)C(N)CC(=O)O)NC(=O)C1CCC1 (configuration not stated)	> 100 µM (inactive)	> 100 µM (inactive)	> 100 µM (inactive)	> 100 µM (inactive)	> 100 µM (inactive)	> 100 µM (inactive)	> 100 µM (inactive)	> 100 µM (inactive)	> 100 µM (inactive)	> 100	> 100 µM (inactive)		> 100 µM (inactive)	> 100 µM (inactive)	> 100 µM (inactive)	> 100 µM (inactive)	> 100 µM (inactive)	> 100 µM (inactive)	> 100 µM (inactive)	
O=S(=O)(SC1=NCCN1)c1cccc2ccccc12	22.9 µM (inactive)	24 µM (inactive)	21.8 µM (inactive)	17.9 µM (inactive)	29.6 µM (inactive)	21.6 µM (inactive)	35.9 µM (inactive)	28.7 µM (inactive)	17.8 µM (inactive)	35.3	28.5 µM (inactive)	> 10 µM (inactive)	28.8 µM (inactive)	24.9 µM (inactive)	35.1 µM (inactive)	30.1 µM (inactive)		14.4 µM (inactive)	27 µM (inactive)	> 10 µM (inactive)
Cc1ccc(-c2c(C#N)c(O)n(NS(=O)(=O)c3ccccc3)c(=O)c2C#N)cc1	> 100 µM (inactive)	> 100 µM (inactive)	> 100 µM (inactive)	> 100 µM (inactive)		> 100 µM (inactive)		> 100 µM (inactive)	> 100 µM (inactive)	> 100	> 100 µM (inactive)	> 100 µM (inactive)	> 100 µM (inactive)	> 100 µM (inactive)	> 100 µM (inactive)	> 100 µM (inactive)		> 100 µM (inactive)	> 100 µM (inactive)	> 100 µM (inactive)
O=c1c2ccccc2nc(-c2cccc(Cl)c2)n1NC1OC(CO)C(O)C(O)C1O (configuration not stated)		> 100 µM (inactive)	73.3 µM (inactive)	> 100 µM (inactive)		> 100 µM (inactive)	> 100 µM (inactive)	> 100 µM (inactive)	> 100 µM (inactive)	> 100	> 100 µM (inactive)	> 100 µM (inactive)	> 100 µM (inactive)	> 100 µM (inactive)	> 100 µM (inactive)	> 100 µM (inactive)		> 100 µM (inactive)	> 100 µM (inactive)	> 100 µM (inactive)
COc1ccc(C2CC(C)=Nc3c(O)nc(S)nc3N2)cc1 (configuration not stated)		16.6 µM (inactive)	24.2 µM (inactive)	17.4 µM (inactive)		17.2 µM (inactive)	17.9 µM (inactive)	18.7 µM (inactive)	18.6 µM (inactive)	16.3	16.8 µM (inactive)	17.7 µM (inactive)	20 µM (inactive)	27.6 µM (inactive)	17.3 µM (inactive)	22.1 µM (inactive)		16.3 µM (inactive)	18.7 µM (inactive)	16.7 µM (inactive)
CC(OC(C)(C)C)C1NC(=O)C(CCCCNC(=O)OC(C)(C)C)NC(=O)C(Cc2c[nH]c3ccccc23)NC(=O)C(Cc2ccccc2)NC(=O)[C@H]2CCC[C@H]2NC(=O)C(Cc2ccccc2)NC1=O (some centres not stated) (cyclo([X26][ξF][ξW][ξK](Boc)[ξT](tBu)[ξF]))		9.57 µM (inactive)	9.06 µM (inactive)	> 100 µM (inactive)	93.8 µM (inactive)	39.2 µM (inactive)	> 100 µM (inactive)	30 µM (inactive)	18.9 µM (inactive)	> 100	5.41 µM (inactive)	> 100 µM (inactive)	18.2 µM (inactive)	> 100 µM (inactive)	25.5 µM (inactive)	> 100 µM (inactive)	15.2 µM (inactive)	61.7 µM (inactive)	> 100 µM (inactive)	12.2 µM (inactive)
Cc1cccc(NC(=O)C(=O)Cc2nc3ccccc3nc2O)c1C		> 100 µM (inactive)	> 100 µM (inactive)	> 100 µM (inactive)		> 100 µM (inactive)	> 100 µM (inactive)	> 100 µM (inactive)	> 100 µM (inactive)	> 100	> 100 µM (inactive)	> 100 µM (inactive)	> 100 µM (inactive)	> 100 µM (inactive)	> 100 µM (inactive)	> 100 µM (inactive)		> 100 µM (inactive)	> 100 µM (inactive)	> 100 µM (inactive)
CCOC(=O)[C@@]12C[C@](/C=C/OC)(O[Si](C)(C)C)[C@@]13c1cc(OC)c(OC)cc1CCN3C(=O)C2=O	> 100 µM (inactive)	> 100 µM (inactive)	> 100 µM (inactive)	> 100 µM (inactive)	> 100 µM (inactive)	> 100 µM (inactive)	> 100 µM (inactive)	> 100 µM (inactive)	> 100 µM (inactive)	> 100	> 100 µM (inactive)		> 100 µM (inactive)	> 100 µM (inactive)	> 100 µM (inactive)	> 100 µM (inactive)	> 100 µM (inactive)		> 100 µM (inactive)	
CN(CC(=O)O)Cc1oc(CO)cc(=O)c1O	> 100 µM (inactive)	> 100 µM (inactive)	> 100 µM (inactive)	> 100 µM (inactive)		> 100 µM (inactive)	> 100 µM (inactive)	> 100 µM (inactive)	> 100 µM (inactive)	> 100	> 100 µM (inactive)	30 µM (inactive)	> 100 µM (inactive)	> 100 µM (inactive)	> 100 µM (inactive)	> 100 µM (inactive)	> 100 µM (inactive)	> 100 µM (inactive)	> 100 µM (inactive)	> 100 µM (inactive)
CC(=O)Oc1ccn2nc(C)c(Cc3c(C)nn4ccc(OC(C)=O)cc34)c2c1		37.8 µM (inactive)	27.9 µM (inactive)	> 100 µM (inactive)	> 100 µM (inactive)	> 100 µM (inactive)		> 100 µM (inactive)		> 100	47.1 µM (inactive)	39.1 µM (inactive)	> 100 µM (inactive)	51.8 µM (inactive)	62.7 µM (inactive)	> 100 µM (inactive)	> 100 µM (inactive)	33.2 µM (inactive)	98.2 µM (inactive)	
CC(=O)C(=C(I)I)c1ccccc1		15 µM (inactive)	11.5 µM (inactive)	20.9 µM (inactive)	29.7 µM (inactive)	11.5 µM (inactive)	19.2 µM (inactive)	18.5 µM (inactive)	15.5 µM (inactive)	29.3	16.7 µM (inactive)	24.7 µM (inactive)	18.3 µM (inactive)	1.84 µM (inactive)	17.5 µM (inactive)	25.7 µM (inactive)	20.4 µM (inactive)	12.7 µM (inactive)	18.3 µM (inactive)	24.5 µM (inactive)
